Structures can show the parent of a compound that is named as a salt. Where only a bound is given, the exact number is not on record here.

The target in the experiment is T1, URAT-1 transporter (Homo sapiens, UniProt Q96S37).
T1 construct: expressed in transfected cells
T1 sequence (Q96S37 with tags, fused parts or gaps): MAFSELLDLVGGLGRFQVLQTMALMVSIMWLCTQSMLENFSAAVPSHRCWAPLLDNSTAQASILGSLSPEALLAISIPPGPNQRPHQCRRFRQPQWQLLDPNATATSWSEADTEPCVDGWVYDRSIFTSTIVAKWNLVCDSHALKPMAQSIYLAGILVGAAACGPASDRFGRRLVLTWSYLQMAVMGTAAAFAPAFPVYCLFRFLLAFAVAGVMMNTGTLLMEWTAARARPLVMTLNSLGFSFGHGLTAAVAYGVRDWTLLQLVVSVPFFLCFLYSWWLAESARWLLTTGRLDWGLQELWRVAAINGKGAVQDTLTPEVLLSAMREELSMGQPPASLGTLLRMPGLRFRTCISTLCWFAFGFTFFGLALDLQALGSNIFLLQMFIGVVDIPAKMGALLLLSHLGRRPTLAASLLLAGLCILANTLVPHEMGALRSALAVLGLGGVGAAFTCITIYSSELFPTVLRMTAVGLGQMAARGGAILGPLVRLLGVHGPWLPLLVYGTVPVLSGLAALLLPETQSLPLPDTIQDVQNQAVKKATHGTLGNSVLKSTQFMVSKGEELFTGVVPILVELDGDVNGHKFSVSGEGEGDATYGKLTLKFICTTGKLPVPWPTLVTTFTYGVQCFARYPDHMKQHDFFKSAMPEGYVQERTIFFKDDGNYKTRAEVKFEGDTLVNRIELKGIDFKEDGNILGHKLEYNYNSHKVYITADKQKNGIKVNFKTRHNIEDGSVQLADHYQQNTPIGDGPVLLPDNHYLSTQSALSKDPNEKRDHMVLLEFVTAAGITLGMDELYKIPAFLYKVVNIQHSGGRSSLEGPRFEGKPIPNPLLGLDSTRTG
The experiment can be described thus: URAT-1 inhibitor activity: [14C]-uric acid uptake into CHO-URAT1(L)GFP#8 (CHO#8) cells, scintillation proximity. The class given is cell-based. The text has this:
The nucleotide sequence for the long isoform of URAT1 (NM_144585) was C-terminally fused to that of enhanced green fluorescent protein (eGFP) (hereinafter referred to as URAT1(L)GFP). The combined sequence was codon-optimised and custom synthesized. The synthesized sequence was generated in pDONR221 Gateway entry vector (Invitrogen Life Technologies) prior to cloning in pLenti6.3/V5 Gateway destination vector (Invitrogen Life Technologies).
Lentiviral particles were generated according to ViraPower HiPerform expression system procedure (Invitrogen Life Technologies) and used to transduce CHO cells. Blasticidin selection enabled the generation of a stable clonal pool of cells, confirmed by expression of GFP and V5 epitope. The clonal pools were sorted using fluorescence-activated cell sorting (FACS) on the basis of GFP expression with the gating set at the top 50% of expression into single cells which were subsequently expanded to generate clonal lines. […] This cell line was used for all screening activities and is referred to as CHO-URAT1(L)GFP#8 or CHO#8.
The potency of the compounds of formula (I) as inhibitors of the URAT-1 transporter was determined as follows.
CHO#8 cells were cultured in cell line maintenance flasks in medium consisting of Dulbecco's modified Eagle medium (DMEM) with high glucose and sodium pyruvate (4.5 g of glucose per litre, Invitrogen Life Technologies), supplemented with heat-inactivated foetal bovine serum (FBC, 10% v/v), 1×NEAA (non-essential amino acids) and blasticidin (10 μg/ml). Cultures were grown in 175 cm^2 tissue culture flasks in a humidified incubator at approximately 37° C. in approximately 95% air/5% CO2. Near confluent CHO#8 cell cultures were harvested by trypsinisation, re-suspended in culture medium and the process was repeated once or twice weekly to provide sufficient cells for use.
Assay ready flasks were generated by the same method, except the cells were not cultured in blasticidin.
Assay ready frozen cells were generated by freezing 40,000,000 cells in 1 ml of FBS (without blasticidin) containing 10% DMSO per vial. One vial was sufficient for 5 assay plates. Each vial was thawed rapidly to 37° C., washed and re-suspended in pre-warmed culture medium for seeding onto assay plates.
CHO#8 cells were seeded onto Cytostar™ 96-well plates at a density of […]. The cells were cultured for 1 day at approximately 37° C. in a humidified incubator containing approximately 5% CO2 in air. After approximately 24 hours culture, cells were used for uptake experiments.
On the day of assay, culture medium was removed from the wells and the cells were washed once with 50 μL of chloride-containing buffer (136.7 mM NaCl, 5.36 mM KCl, 0.952 mM CaCl2, 0.441 mM KH2PO4, 0.812 mM MgSO4, 5.6 mM D-glucose, 0.383 mM Na2HPO4.2H2O, 10 mM HEPES, pH 7.4 with NaOH). The cells were pre-incubated with another 50 μL of chloride-containing buffer for one hour at approximately 37° C. in a humidified incubator containing approximately 5% CO2 in air.
Assay compound plates were prepared by diluting the compounds of formula (I) with chloride-free buffer (125 mM Na-gluconate, 4.8 mM K-gluconate, 1.3 mM Ca-gluconate, 1.2 mM KH2PO4, 1.2 mM MgSO4, 5.6 mM D-glucose, 25 mM HEPES, pH 7.4 with NaOH) in 100% DMSO to a final concentration of 1% DMSO. [^14C]-Uric Uric acid working stock was made by addition of radiolabeled compound to a final concentration of 120 nM in chloride-free buffer. In all wells, the final assay concentration of solvent (DMSO) was 0.25%; the final assay concentration of [^14C]-uric acid was 30 nM in chloride-free buffer and the final compound of formula (I) concentrations ranged from 0 to 10 μM.
After pre-incubation, cells were washed with 50 μL of chloride-free buffer and another 50 μL of chloride-free buffer was added. […]
As for `[2H]C([2H])([2H])Oc1cc(Cl)ccc1Oc1ccc(S(=O)(=O)Nc2ncns2)cc1C#N` [Example 57], half-maximal inhibition (IC50) required 517 nM.

With `Cn1cc(NS(=O)(=O)c2ccc(Oc3ccc(C#N)c(Cl)c3)c(C#N)c2)cn1` [Example 58, 4-(3-chloro-4-cyanophenoxy)-3-cyano-N-(1-methyl-1H-pyrazol-4-yl)benzenesulfonamide], the half-maximal inhibitory concentration (IC50) is above 10000 nM.

With `Cc1cc(NS(=O)(=O)c2ccc(Oc3ccc(C#N)c(Cl)c3)c(C#N)c2)on1` [Example 59, 4-(3-chloro-4-cyanophenoxy)-3-cyano-N-(3-methyl-1,2-oxazol-5-yl)benzenesulfonamide], the IC50 is above 10000 nM.

`O=S(=O)(Nc1ncc(F)s1)c1ccc(Oc2ccc(Cl)cc2OC(F)(F)F)c(F)c1` [Example 60, 4-[4-chloro-2-(trifluoromethoxy)phenoxy]-3-fluoro-N-(5-fluoro-1,3-thiazol-2-yl)benzenesulfonamide] returned an IC50 above 8780 nM.

Take `O=S(=O)(Nc1ncc(F)s1)c1ccc(Oc2ccc(Cl)cc2C(F)(F)F)c(F)c1` [Example 61, 4-[4-chloro-2-(trifluoromethyl)phenoxy]-3-fluoro-N-(5-fluoro-1,3-thiazol-2-yl)benzenesulfonamide]: the IC50 is above 10000 nM.

Molecule `CC(C)c1cccc(Oc2ccc(S(=O)(=O)Nc3ncns3)cc2Cl)c1` [Example 63, 3-chloro-4-[3-(propan-2-yl)phenoxy]-N-(1,2,4-thiadiazol-5-yl)benzenesulfonamide diethylamine salt] showed an IC50 of 1440 nM.

Take `N#Cc1ccc(Oc2ccc(S(=O)(=O)Nc3ncns3)cc2Cl)cc1` [Example 64, 3-chloro-4-(4-cyanophenoxy)-N-(1,2,4-thiadiazol-5-yl)benzenesulfonamide diethylamine salt]: half-maximal inhibition (IC50) required 8010 nM.

`O=S(=O)(Nc1ncns1)c1ccc(Oc2cccc(C(F)(F)F)c2F)c(Cl)c1` [Example 65, 3-chloro-4-[2-fluoro-3-(trifluoromethyl)phenoxy]-N-(1,2,4-thiadiazol-5-yl)benzenesulfonamide diethylamine salt] showed an IC50 of 1490 nM.

Consider `CC(C)c1cccc(Oc2ccc(S(=O)(=O)Nc3nccs3)cc2F)c1` [Example 66, 3-fluoro-4-[3-(propan-2-yl)phenoxy]-N-(1,3-thiazol-2-yl)benzenesulfonamide], for which inhibition was half-maximal at 5810 nM (IC50). Against the preceding molecule, the IC50 is about 3.9-fold higher.

`CC(C)c1cccc(Oc2cc(F)c(S(=O)(=O)Nc3nccs3)cc2F)c1` [Example 67, 2,5-difluoro-4-[3-(propan-2-yl)phenoxy]-N-(1,3-thiazol-2-yl)benzenesulfonamide] had an IC50 above 7580 nM.

In turn, `CC(C)c1cccc(Oc2cc(F)c(S(=O)(=O)Nc3ncc(F)s3)cc2F)c1` [Example 68, 2,5-difluoro-N-(5-fluoro-1,3-thiazol-2-yl)-4-[3-(propan-2-yl)phenoxy]benzenesulfonamide] registered a concentration for half-maximal inhibition (IC50) above 8470 nM.

Take `CC(C)c1cccc(Oc2ccc(S(=O)(=O)Nc3ncc(F)s3)cc2F)c1` [Example 69, 3-fluoro-N-(5-fluoro-1,3-thiazol-2-yl)-4-[3-(propan-2-yl)phenoxy]benzenesulfonamide]: the 50% inhibitory concentration (IC50) is above 6340 nM.

As for `O=S(=O)(Nc1nccs1)c1ccc(Oc2ccc(Cl)cc2OC(F)(F)F)c(F)c1` [Example 70, 4-[4-chloro-2-(trifluoromethoxy)phenoxy]-3-fluoro-N-(1,3-thiazol-2-yl)benzenesulfonamide], the IC50 was above 10000 nM.

For `O=S(=O)(Nc1nccs1)c1ccc(Oc2ccc(Cl)cc2C(F)(F)F)c(F)c1` [Example 71, 4-[4-chloro-2-(trifluoromethyl)phenoxy]-3-fluoro-N-(1,3-thiazol-2-yl)benzenesulfonamide], the IC50 is above 10000 nM.

`CCc1cc(F)ccc1Oc1ccc(S(=O)(=O)Nc2nccs2)c(F)c1` [Example 72, 4-(2-ethyl-4-fluorophenoxy)-2-fluoro-N-(1,3-thiazol-2-yl)benzenesulfonamide] displayed an IC50 above 10000 nM.

`CC(C)c1cccc(Oc2ccc(S(=O)(=O)Nc3nccs3)c(F)c2)c1` [Example 73, 2-fluoro-4-[3-(propan-2-yl)phenoxy]-N-(1,3-thiazol-2-yl)benzenesulfonamide] yielded an IC50 above 10000 nM.

In the case of `Cc1cc(Oc2ccc(S(=O)(=O)Nc3nccs3)cc2F)ccc1F` [Example 74, 3-fluoro-4-(4-fluoro-3-methylphenoxy)-N-(1,3-thiazol-2-yl)benzenesulfonamide], the IC50 was above 3440 nM.

`O=S(=O)(Nc1nccs1)c1ccc(Oc2ccccc2Br)c(F)c1` [Example 75, 4-(2-bromophenoxy)-3-fluoro-N-(1,3-thiazol-2-yl)benzenesulfonamide] returned an IC50 above 10000 nM.

`Cc1nocc1NS(=O)(=O)c1ccc(Oc2ccc(C#N)c(Cl)c2)c(C#N)c1` [Example 76, 4-(3-chloro-4-cyanophenoxy)-3-cyano-N-(3-methyl-1,2-oxazol-4-yl)benzenesulfonamide] displayed an IC50 of 93 nM.

Regarding `CCc1cc(F)ccc1Oc1ccc(S(=O)(=O)Nc2cscn2)cc1I` [Example 77, 4-(2-ethyl-4-fluorophenoxy)-3-iodo-N-(1,3-thiazol-4-yl)benzenesulfonamide], 160 nM corresponded to half-maximal inhibition (IC50).

`CCc1cc(F)ccc1Oc1cc(F)c(S(=O)(=O)Nc2cscn2)cc1Br` [Example 78, 5-bromo-4-(2-ethyl-4-fluorophenoxy)-2-fluoro-N-(1,3-thiazol-4-yl)benzenesulfonamide]: inhibition was half-maximal at 165 nM (IC50).

The molecule `COc1cc(Cl)ccc1Oc1ccc(S(=O)(=O)Nc2cscn2)c(OC)c1` [Example 79, 4-(4-chloro-2-methoxyphenoxy)-2-methoxy-N-(1,3-thiazol-4-yl)benzenesulfonamide diethylamine salt] returned an IC50 above 10000 nM.

With `COc1cc(Cl)ccc1Oc1ccc(S(=O)(=O)Nc2nncs2)c(OC)c1` [Example 80, 4-(4-chloro-2-methoxyphenoxy)-2-methoxy-N-(1,3,4-thiadiazol-2-yl)benzenesulfonamide], the IC50 was above 5780 nM.

Consider `COc1cc(Cl)ccc1Oc1ccc(S(=O)(=O)Nc2cscn2)c(Cl)c1` [Example 81, 2-chloro-4-(4-chloro-2-methoxyphenoxy)-N-(1,3-thiazol-4-yl)benzenesulfonamide diethylamine salt], for which half-maximal inhibition (IC50) was put at 3600 nM.

As to `COc1cc(Cl)ccc1Oc1ccc(S(=O)(=O)Nc2nncs2)c(Cl)c1` [Example 82, 2-chloro-4-(4-chloro-2-methoxyphenoxy)-N-(1,3,4-thiadiazol-2-yl)benzenesulfonamide diethylamine salt], the IC50 stood at 340 nM. Against the preceding molecule, the IC50 is about 11-fold lower.

Consider `O=S(=O)(Nc1nccs1)c1ccc(Oc2ncncc2Br)c(F)c1` [Example 83, 4-[(5-bromopyrimidin-4-yl)oxy]-3-fluoro-N-(1,3-thiazol-2-yl)benzenesulfonamide], for which the midpoint of inhibition, the IC50, lay at 1140 nM. Against the preceding molecule, the IC50 is about 3.4-fold higher.

`N#Cc1cc(S(=O)(=O)Nc2ncc(Cl)s2)ccc1Oc1ccccc1F` [Example 84, N-(5-chloro-1,3-thiazol-2-yl)-3-cyano-4-(2-fluorophenoxy)benzenesulfonamide] came in with an IC50 of 681 nM.

Consider `N#Cc1cc(S(=O)(=O)Nc2ncc(Cl)s2)ccc1Oc1ccccc1Cl` [Example 85, 4-(2-chlorophenoxy)-N-(5-chloro-1,3-thiazol-2-yl)-3-cyanobenzenesulfonamide], for which the IC50 was 845 nM.

`N#Cc1cc(S(=O)(=O)Nc2ncc(Cl)s2)ccc1Oc1cc(Cl)ccc1Cl` [Example 86, N-(5-chloro-1,3-thiazol-2-yl)-3-cyano-4-(2,5-dichlorophenoxy)benzenesulfonamide] displayed an IC50 of 680 nM.

(Values after US20140315933A1, “CHEMICAL COMPOUNDS” (Pfizer Limited, priority 2013, published 2014).)
